US9783536B2, “Nitrogen-containing heterocyclic compound or salt thereof” (FUJIFILM Corporation, priority 2013, dated 2017)
Where a name gives a salt, the structure may show the parent alone. Read-outs that look alike come from different tables or passages of the source.

Columns and labels:
[1] = target: T1, GST fusion human ERK2 protein (Homo sapiens, UniProt P28482); experiment: ERK2 enzyme assay (2); format: biochemical; details: read-out: ERK2 enzyme inhibitory activity (2)
T1 construct: purchased Carna Biosciences, Inc; host or cells: E. coli expression system
T1 sequence (P28482 whole entry, the tested form may be a part): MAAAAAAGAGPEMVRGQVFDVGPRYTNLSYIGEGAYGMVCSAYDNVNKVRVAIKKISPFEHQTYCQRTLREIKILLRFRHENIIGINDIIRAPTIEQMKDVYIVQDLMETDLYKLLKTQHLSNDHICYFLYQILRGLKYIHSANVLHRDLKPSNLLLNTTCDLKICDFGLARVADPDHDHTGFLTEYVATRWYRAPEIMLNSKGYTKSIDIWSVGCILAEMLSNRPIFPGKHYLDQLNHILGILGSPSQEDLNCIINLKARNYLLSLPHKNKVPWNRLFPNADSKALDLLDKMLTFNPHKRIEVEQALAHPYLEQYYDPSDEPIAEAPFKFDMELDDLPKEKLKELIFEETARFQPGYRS
In short: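 GST-tagged human ERK2 expressed in E. coli (1.25 nmol/L) was preincubated with compound for 15 min at room temperature in pH 7.5 Hepes buffer with MgCl2, DTT and Brij35. Reaction with FL-Peptide 8 (final 4.25 μmol/L) and ATP (final 1 mmol/L) ran 120 min at 25 °C; EDTA stopped it, and phosphorylated peptide was quantified by mobility-shift separation to derive IC50.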

[2] = target: T2, human PI3Kα protein (Homo sapiens, UniProt P42336); experiment: PI3Kα enzyme assay (ADP-Glo); format: biochemical; details: read-out: PI3Kα enzyme inhibitory activity
T2 construct: purchased Carna Biosciences, Inc; host or cells: baculovirus expression system
T2 sequence (P42336 whole entry): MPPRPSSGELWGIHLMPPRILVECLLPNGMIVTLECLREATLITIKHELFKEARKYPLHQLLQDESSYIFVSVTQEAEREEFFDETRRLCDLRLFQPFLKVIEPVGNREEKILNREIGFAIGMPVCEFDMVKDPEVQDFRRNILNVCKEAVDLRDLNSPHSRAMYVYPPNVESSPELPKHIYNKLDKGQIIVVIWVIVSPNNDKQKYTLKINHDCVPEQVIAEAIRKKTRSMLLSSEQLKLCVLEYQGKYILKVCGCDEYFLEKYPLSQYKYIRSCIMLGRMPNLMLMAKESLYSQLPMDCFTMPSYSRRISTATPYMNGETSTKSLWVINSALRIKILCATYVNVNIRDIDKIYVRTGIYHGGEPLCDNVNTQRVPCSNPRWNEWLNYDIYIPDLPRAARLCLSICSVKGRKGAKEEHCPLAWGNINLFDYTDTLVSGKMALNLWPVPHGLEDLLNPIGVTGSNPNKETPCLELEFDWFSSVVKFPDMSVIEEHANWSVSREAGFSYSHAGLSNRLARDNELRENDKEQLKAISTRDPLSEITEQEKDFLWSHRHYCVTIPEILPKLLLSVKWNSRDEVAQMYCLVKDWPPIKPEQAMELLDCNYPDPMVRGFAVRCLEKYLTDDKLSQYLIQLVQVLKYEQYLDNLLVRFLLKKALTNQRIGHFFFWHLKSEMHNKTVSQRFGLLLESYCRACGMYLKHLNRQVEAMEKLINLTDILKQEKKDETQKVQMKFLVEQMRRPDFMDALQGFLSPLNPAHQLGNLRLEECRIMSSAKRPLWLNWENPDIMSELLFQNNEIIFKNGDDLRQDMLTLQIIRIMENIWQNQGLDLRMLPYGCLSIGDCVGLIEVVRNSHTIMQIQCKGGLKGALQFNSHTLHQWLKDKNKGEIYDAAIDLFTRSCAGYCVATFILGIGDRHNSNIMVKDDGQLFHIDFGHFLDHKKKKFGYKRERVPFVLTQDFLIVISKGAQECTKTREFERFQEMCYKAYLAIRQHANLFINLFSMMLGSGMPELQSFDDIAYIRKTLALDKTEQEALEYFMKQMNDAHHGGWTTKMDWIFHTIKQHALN
T2 sequence (P27986 whole entry partner): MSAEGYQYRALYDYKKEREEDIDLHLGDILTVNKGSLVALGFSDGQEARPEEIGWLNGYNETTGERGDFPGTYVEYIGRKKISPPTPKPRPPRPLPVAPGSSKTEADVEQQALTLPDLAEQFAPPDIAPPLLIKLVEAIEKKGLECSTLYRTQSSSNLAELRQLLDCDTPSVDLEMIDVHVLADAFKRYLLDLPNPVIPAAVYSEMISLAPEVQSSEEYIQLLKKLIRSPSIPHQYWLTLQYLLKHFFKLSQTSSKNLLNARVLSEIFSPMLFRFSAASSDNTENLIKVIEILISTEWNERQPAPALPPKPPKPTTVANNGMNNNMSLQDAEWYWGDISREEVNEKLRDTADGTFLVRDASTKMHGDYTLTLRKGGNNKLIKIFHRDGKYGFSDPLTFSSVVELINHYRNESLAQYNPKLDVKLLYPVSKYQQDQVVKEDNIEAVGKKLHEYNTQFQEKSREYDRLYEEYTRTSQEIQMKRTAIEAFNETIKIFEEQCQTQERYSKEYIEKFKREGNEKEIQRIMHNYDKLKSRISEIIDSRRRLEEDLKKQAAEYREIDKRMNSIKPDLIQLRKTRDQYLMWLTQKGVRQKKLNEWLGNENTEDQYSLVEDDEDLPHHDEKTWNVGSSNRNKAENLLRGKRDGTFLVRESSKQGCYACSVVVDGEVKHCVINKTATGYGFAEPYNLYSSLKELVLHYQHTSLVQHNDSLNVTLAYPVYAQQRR
In short: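 Biotinylated human PI3Kα (baculovirus-expressed, 4.5 nmol/L) pre-incubated 15 min with compound in Tris-HCl pH 7.5, MgCl2, BSA; reaction 60 min at 25° C with 50 μmol/L PIP2 and 100 μmol/L ATP final. ADP quantified by ADP-Glo luminescence; IC50 calculated.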

| SMILES | IC50 ([1]; ERK2 enzyme assay (2)) [µM] | IC50 [2] [µM] | IC50 [1] [µM] |
| --- | --- | --- | --- |
| CC(C)c1cnnc(Nc2ccc3ncc(-c4ccnn4C)cc3n2)c1 [Example 0758] | < 1 | 1 to 10 | – |
| Cc1nn(C)cc1-c1cnc2ccc(Nc3cc(C(C)(C)O)cnn3)nc2c1 [Example 0547] | < 1 | < 1 | – |
| CC(C)N1CC(OCCn2cc(-c3cnc4ccc(Nc5cc(CC6CCCCC6)cnn5)nc4c3)cn2)C1 [Example 0819] | < 1 | < 1 | – |
| CC(C)c1cnnc(Nc2ccc3ncc(-c4cn(C)nc4-c4ccc(OCC(=O)N(C)C)cc4)cc3n2)c1 [Example 0777, 2-(4-(4-(6-((5-Isopropylpyridazin-3-yl)amino)-1,5-naphthyridin-3-yl)-1-methyl-1H-pyrazol-3-yl)phenoxy)-N,N-dimethylacetamide] | < 1 | < 1 | – |
| CC(C)c1cnnc(Nc2ccc3ncc(N4CCC(C#N)C4)cc3n2)c1 (centres unmarked) [Example 0897] | < 1 | < 1 | – |
| CC1CN(CCCn2cc(-c3cnc4ccc(Nc5cc(C(C)C)cnn5)nc4c3)cn2)C(C)CO1 (centres unmarked) [Example 0674] | < 1 | < 1 | – |
| CC(C)c1cnnc(Nc2ccc3ncc(-c4cnn(CCCN5CC(OC(F)F)C5)c4)cc3n2)c1 [Example 0681] | < 1 | < 1 | – |
| CCOC(CN1CCOCC1)Cn1cc(-c2cnc3ccc(Nc4cc(C(C)C)cnn4)nc3c2)cn1 (centres unmarked) [Example 0811] | < 1 | < 1 | – |
| CC(=O)N1CCC(Nc2cnc3ccc(Nc4cc(C(C)C)cnn4)nc3c2)CC1 [Example 0540, 1-(4-((6-((5-Isopropylpyridazin-3-yl)amino)-1,5-naphthyridin-3-yl)amino)piperidin-1-yl)ethanone] | 1 to 10 | < 1 | – |
| CC(C)c1cnnc(Nc2ccc3ncc(-c4cn(C)nc4NC4COC4)cc3n2)c1 [Example 0831] | < 1 | < 1 | – |
| CCN(CCO)c1cnnc(Nc2ccc3ncc(-c4cnn(C)c4)cc3n2)c1 [Example 0525] | < 1 | < 1 | – |
| CC(C)c1cnnc(Nc2ccc3ncc(-c4cnn(CC(CN5CCOCC5)OCc5ccccc5)c4)cc3n2)c1 (centres unmarked) [Example 0732] | < 1 | < 1 | – |
| CC(C)c1cnnc(Nc2ccc3ncc(-c4cnn(CCC5CCOCC5)c4)cc3n2)c1 [Example 0483] | < 1 | < 1 | – |
| CC(C)c1cnnc(Nc2ccc3ncc(-c4cnn(CC5CCN(C(=O)N6CCCCC6)CC5)c4)cc3n2)c1 [Example 0533] | < 1 | < 1 | – |
| CC(C)c1cnnc(Nc2ccc3ncc(N4CCC(=O)N(C)CC4)cc3n2)c1 [Example 0862] | < 1 | < 1 | – |
| CC(C)c1cnnc(Nc2ccc3ncc(-c4cn(C)nc4-c4ccnc(N5CCOCC5)c4)cc3n2)c1 [Example 0749, N-(5-isopropylpyridazin-3-yl)-7-(1-methyl-3-(2-morpholinopyridin-4-yl)-1H-pyrazol-4-yl)-1,5-naphthyridine-2-amine] | < 1 | < 1 | – |
| CC(C)c1cnnc(Nc2ccc3ncc(-c4cn(C)nc4COc4cccnc4)cc3n2)c1 [Example 0799, N-(5-isopropylpyridazin-3-yl)-7-(1-methyl-3-((pyridin-3-yloxy)methyl)-1H-pyrazol-4-yl)-1,5-naphthyridine-2-amine] | < 1 | < 1 | – |
| CC(C)c1cnnc(Nc2ccc3ncc(NC4CCCC4)cc3n2)c1 [Example 0878] | 1 to 10 | < 1 | – |
| Cn1cc(-c2cnc3ccc(Nc4cc(C5CCCCC5)cnn4)nc3c2)cn1 [Example 0927, N-(5-cyclohexylpyridazin-3-yl)-7-(1-methyl-1H-pyrazol-4-yl)-1,5-naphthyridine-2-amine] | – | < 1 | < 1 |
| COc1cccc(OCc2nn(C)cc2-c2cnc3ccc(Nc4cc(C(C)C)cnn4)nc3c2)c1 [Example 0805] | < 1 | < 1 | – |
| CC(C)c1cnnc(Nc2ccc3ncc(-n4cnc(CCNC(=O)OC(C)(C)C)c4)cc3n2)c1 [Example 0505, tert-Butyl (2-(1-(6-((5-isopropylpyridazin-3-yl)amino)-1,5-naphthyridin-3-yl)-1H-imidazol-4-yl)ethyl)carbamate] | < 1 | 1 to 10 | – |
| CC(C)c1cnnc(Nc2ccc3ncc(-c4cnn(CCCN(C)CC(N)=O)c4)cc3n2)c1 [Example 0671] | < 1 | < 1 | – |

| SMILES | IC50 ([1]; ERK2 enzyme assay (2)) [µM] | IC50 [2] [µM] | IC50 [1] [µM] |
| --- | --- | --- | --- |
| CC(C)c1cnnc(Nc2ccc3ncc(-c4cc(-c5ccccn5)nn4C)cc3n2)c1 [Example 0837, N-(5-isopropylpyridazin-3-yl)-7-(1-methyl-3-(pyridin-2-yl)-1H-pyrazol-5-yl)-1,5-naphthyridine-2-amine] | < 1 | 1 to 10 | – |
| CC(C)C(=O)N1CCC(Cn2cc(-c3cnc4ccc(Nc5cc(C(C)C)cnn5)nc4c3)cn2)CC1 [Example 0536] | < 1 | < 1 | – |
| CC(C)c1cnnc(Nc2ccc3ncc(-c4cn(C)nc4CN(C)c4cccnc4)cc3n2)c1 [Example 0808] | < 1 | 1 to 10 | – |
| Cc1n[nH]cc1-c1cnc2ccc(Nc3cc(C(C)C)cnn3)nc2c1 [Example 0719, N-(5-isopropylpyridazin-3-yl)-7-(3-methyl-1H-pyrazol-4-yl)-1,5-naphthyridine-2-amine] | < 1 | < 1 | – |
| CC(C)c1cnnc(Nc2ccc3ncc(N4CCC(N5CCCC5)C4)cc3n2)c1 (centres unmarked) [Example 0899] | 1 to 10 | 1 to 10 | – |
| CC(C)c1cnnc(Nc2ccc3ncc(-c4cn(C)nc4CN4CCN(C)CC4)cc3n2)c1 [Example 0912, N-(5-isopropylpyridazin-3-yl)-7-(1-methyl-3-((4-methylpiperazin-1-yl)methyl)-1H-pyrazol-4-yl)-1,5-naphthyridine-2-amine] | – | < 1 | < 1 |
| CC(C)c1cnnc(Nc2ccc3ncc(-c4cnn(CCCN5CC(NC(=O)OC(C)(C)C)C5)c4)cc3n2)c1 [Example 0693] | < 1 | < 1 | – |
| COCC1(Nc2cnc3ccc(Nc4cc(C(C)C)cnn4)nc3c2)CCC1 [Example 0889] | 10 to 50 | 10 to 50 | – |
| CCCN(CCC)c1cnnc(Nc2ccc3ncc(-c4cnn(C)c4)cc3n2)c1 [Example 0523] | < 1 | < 1 | – |
| Cc1cc(-c2nn(C)cc2-c2cnc3ccc(Nc4cc(C(C)C)cnn4)nc3c2)cc(C)n1 [Example 0748, 7-(3-(2,6-Dimethylpyridin-4-yl)-1-methyl-1H-pyrazol-4-yl)-N-(5-isopropylpyridazin-3-yl)-1,5-naphthyridine-2-amine] | < 1 | < 1 | – |
| CC(C)c1cnnc(Nc2ccc3ncc(-c4cn(C)nc4COc4cccc(OCCN(C)C)c4)cc3n2)c1 [Example 0809, 7-(3-((3-(2-(dimethylamino)ethoxy)phenoxy)methyl)-1-methyl-1H-pyrazol-4-yl)-N-(5-isopropylpyridazin-3-yl)-1,5-naphthyridine-2-amine] | < 1 | < 1 | – |
| CCc1cnnc(Nc2ccc3ncc(-c4cn(C)nc4-c4cccnc4)cc3n2)c1 [Example 0542, N-(5-ethylpyridazin-3-yl)-7-(1-methyl-3-(pyridin-3-yl)-1H-pyrazol-4-yl)-1,5-naphthyridine-2-amine] | < 1 | < 1 | – |
| CC(C)c1cnnc(Nc2ccc3ncc(-c4ccc(=O)n(C)c4)cc3n2)c1 [Example 0594, 5-(6-((5-isopropylpyridazin-3-yl)amino)-1,5-naphthyridin-3-yl)-1-methylpyridin-2(1H)-one] | < 1 | < 1 | – |
| CC(C)c1cnnc(Nc2ccc3ncc(-c4cnn(CCC5CCNCC5)c4)cc3n2)c1 [Example 0488, hydrochloric acid salt of N-(5-isopropylpyridazin-3-yl)-7-(1-(2-(piperidin-4-yl)ethyl)-1H-pyrazol-4-yl)-1,5-naphthyridine-2-amine] | < 1 | < 1 | – |
| Cc1n[nH]c(C)c1-c1cnc2ccc(Nc3cc(C(C)C)cnn3)nc2c1 [Example 0621] | < 1 | 1 to 10 | – |
| CC(C)c1ccnc(Nc2ccc3ncc(-c4cnn(C)c4)cc3n2)c1 [Example 0551, N-(4-isopropylpyridin-2-yl)-7-(1-methyl-1H-pyrazol-4-yl)-1,5-naphthyridine-2-amine] | 10 to 50 | < 1 | – |
| Cc1nn(C)cc1-c1cnc2ccc(Nc3cc(CC4CCCCC4)cnn3)nc2c1 [Example 0789] | < 1 | < 1 | – |
| CC(C)c1cnnc(Nc2ccc3ncc(N4CCCC4)cc3n2)c1 [Example 0846, N-(5-isopropylpyridazin-3-yl)-7-(pyrrolidin-1-yl)-1,5-naphthyridine-2-amine] | < 1 | 1 to 10 | – |
| CC(C)c1cnnc(Nc2ccc3ncc(-c4cc(N)ncn4)cc3n2)c1 [Example 0765] | < 1 | < 1 | – |
| CC(C)c1cnnc(Nc2ccc3ncc(-c4cnn(CCC5OCCCO5)c4)cc3n2)c1 [Example 0641, 7-(1-(2-(1,3-Dioxan-2-yl)ethyl)-1H-pyrazol-4-yl)-N-(5-isopropylpyridazin-3-yl)-1,5-naphthyridine-2-amine] | < 1 | < 1 | – |
| C=Cn1cc(-c2cnc3ccc(Nc4cc(C(C)C)cnn4)nc3c2)cn1 [Example 0610, N-(5-isopropylpyridazin-3-yl)-7-(1-vinyl-1H-pyrazol-4-yl)-1,5-naphthyridine-2-amine] | < 1 | < 1 | – |
